From PMC12520410, “A FtsZ inhibitor-acinetobactin conjugate with enhanced cellular uptake in Acinetobacter baumannii acts synergistically in combination with PBP3-targeting antibiotics” (PLOS One, 2025)

Assays:
Type in all cases: binding
[1] = molecular target: T1, AbFtsZ (A. baumannii FtsZ) (Acinetobacter baumannii, UniProt V5V8B6); assay: fluorescence anisotropy titration of RUP2 with purified AbFtsZ
BauA = BauA (Acinetobacter baumannii, UniProt Q76HJ9); assay: fluorescence anisotropy titration of the RUP7_2-Fe3+ complex with purified BauA
BauA, sequence (Q76HJ9 entry or part of it): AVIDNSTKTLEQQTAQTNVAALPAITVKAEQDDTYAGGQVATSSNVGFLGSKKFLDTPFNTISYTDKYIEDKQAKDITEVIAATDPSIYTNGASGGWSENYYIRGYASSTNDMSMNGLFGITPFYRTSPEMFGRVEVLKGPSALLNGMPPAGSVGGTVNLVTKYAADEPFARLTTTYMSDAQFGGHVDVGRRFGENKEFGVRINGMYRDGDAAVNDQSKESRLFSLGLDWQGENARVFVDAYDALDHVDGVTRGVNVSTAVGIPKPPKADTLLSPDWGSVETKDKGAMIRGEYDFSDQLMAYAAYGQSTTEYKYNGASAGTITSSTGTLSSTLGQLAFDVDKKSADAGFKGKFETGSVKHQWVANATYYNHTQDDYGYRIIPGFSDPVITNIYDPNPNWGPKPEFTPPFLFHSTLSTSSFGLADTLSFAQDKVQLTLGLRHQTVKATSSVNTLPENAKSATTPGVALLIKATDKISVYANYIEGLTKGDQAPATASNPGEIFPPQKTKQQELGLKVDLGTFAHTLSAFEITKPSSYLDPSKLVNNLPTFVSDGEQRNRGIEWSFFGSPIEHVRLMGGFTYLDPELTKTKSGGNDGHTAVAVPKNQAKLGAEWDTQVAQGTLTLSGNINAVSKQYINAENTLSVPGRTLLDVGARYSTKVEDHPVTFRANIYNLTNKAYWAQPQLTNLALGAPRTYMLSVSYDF

[2] = molecular target: T1, AbFtsZ (A. baumannii FtsZ); assay: fluorescence anisotropy titration; also inhibits GTP-dependent polymerization (light scattering)

T1 sequence (V5V8B6 entry or part of it): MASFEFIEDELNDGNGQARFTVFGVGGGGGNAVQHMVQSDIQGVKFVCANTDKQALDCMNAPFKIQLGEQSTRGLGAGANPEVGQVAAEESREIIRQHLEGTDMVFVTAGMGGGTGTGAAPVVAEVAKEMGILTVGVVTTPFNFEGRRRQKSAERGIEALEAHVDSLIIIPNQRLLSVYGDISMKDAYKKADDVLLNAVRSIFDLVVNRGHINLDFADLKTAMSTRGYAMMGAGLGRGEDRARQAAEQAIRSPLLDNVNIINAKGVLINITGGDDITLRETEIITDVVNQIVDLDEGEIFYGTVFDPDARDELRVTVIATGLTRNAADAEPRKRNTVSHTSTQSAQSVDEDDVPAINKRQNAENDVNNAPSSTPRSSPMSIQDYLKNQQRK

| Compound | Kd [1] | Kd (BauA) | Kd [2] |
| --- | --- | --- | --- |
| NC(=O)c1c(F)ccc(OC(CCO)c2nc(-c3ccc(C(F)(F)F)cc3)c(Br)o2)c1F (stereo not drawn) [RUP2] | 230 ± 90 nM | – | – |
| C[C@@H]1ON(CCc2cn(CCC(Oc3ccc(F)c(C(N)=O)c3F)c3nc(-c4ccc(C(F)(F)F)cc4)c(Br)o3)cn2)C(=O)[C@H]1NC(=O)c1cccc(O)c1O (stereo partly drawn) [RUP7] | – | 1800 ± 400 nM | 26.5 ± 3.7 µM |
